Test results as given in patent US7709494B2, “4,5-diphenyl-pyrimidinyl-oxy or -mercapto substituted carboxylic acids, method for the production and use thereof as medicaments” (Sanofi-Aventis, priority 2006, dated 2010).

Target: T1, GPCR GPR40 (Homo sapiens, UniProt O14842)
T1 construct: expressed in transfected cells; host or cells: HEK293
Test: In vitro FLIPR assay with recombinant cells which express the GPCR GPR40 (agonist-induced intracellular Ca2+ change)
Type: cell-based
Details: recombinant HEK293 cells expressing GPR40; 100 μM test substance; percentage change relative to control (0%: no test substance; 100%: 10 μM reference agonist linoleic acid)
Method: In vitro FLIPR assay with recombinant cells which express the GPCR GPR40
Function-testing assays were carried out by means of the FLIPR technique (“Fluorescence Imaging Plate Reader”, Molecular Devices Corp.). For this purpose, agonist-induced changes in the intracellular concentration of Ca^2+ in recombinant HEK293 cells which expressed the GPCR. GPR40 were determined.
For the investigations, cells were seeded in 96-well microtiter plates (60 000 cells/well) and allowed to grow overnight. The medium was removed and the cells were incubated in buffer which contained the fluorescent dye fluo-4. After this loading with dye, the cells were washed, test substance was added, and changes in the intracellular Ca^2+ concentration were measured in the FLIPR instrument. Results have been presented as percentage change relative to the control (0%: no test substance added; 100%: 10 μM reference agonist linoleic acid added).

T1 sequence (O14842 whole entry): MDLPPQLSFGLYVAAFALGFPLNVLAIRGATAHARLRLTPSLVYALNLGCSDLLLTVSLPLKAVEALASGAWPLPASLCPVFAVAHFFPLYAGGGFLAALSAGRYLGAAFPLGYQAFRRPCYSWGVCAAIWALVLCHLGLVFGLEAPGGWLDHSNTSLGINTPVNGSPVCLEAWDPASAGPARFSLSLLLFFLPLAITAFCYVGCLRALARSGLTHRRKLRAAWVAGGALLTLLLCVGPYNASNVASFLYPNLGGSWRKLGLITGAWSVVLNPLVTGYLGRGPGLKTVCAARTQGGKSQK

Molecule	% activation @ 100 μM
O=C(O)C1CCC(COc2ncc(-c3ccccc3)c(-c3ccccc3)n2)CC1 (mixture of isomers) [Example 4, Cis/trans-4-(4,5-diphenylpyrimidin-2-yloxymethyl)cyclohexanecarboxylic cid]	96%
O=C(O)[C@H]1CCCC(Oc2ncc(-c3ccccc3)c(-c3ccccc3)n2)C1 (stereo partly drawn) [Example 6, (1S)-3-(4,5-Diphenylpyrimidin-2-yloxy)cyclohexanecarboxylic acid]	66%
O=C(O)[C@H]1CC[C@@H](COc2ncc(-c3ccccc3)c(-c3ccccc3)n2)C1 (relative stereo) [Example 3, cis-3-(4,5-Diphenylpyrimidin-2-yloxymethyl)cyclopentanecarboxylic acid]	76%
O=C(O)CC12CC3CC(C1)CC(Sc1ncc(-c4ccccc4)c(-c4ccccc4)n1)(C3)C2 [Example 5, [3-(4,5-Diphenylpyriidin-2-ylsulfanyl)adamantan-1-yl]acetic acid]	64%
cis-(4,5-Diphenylpyrimidin-2-yloxymethyl)cyclohexanecarboxylic acid [Example 2]	91%
CCC(CCC1CC1C(=O)O)Oc1ncc(-c2ccccc2)c(-c2ccccc2)n1 (stereo not drawn) [Example 10, 2-[3-(4,5-Diphenylpyrimidin-2-yloxy)pentyl]cyclopropanecarboxylic acid]	5%
O=C(O)C1CC1CCCCCSc1ncc(-c2ccccc2)c(-c2ccccc2)n1 (stereo not drawn) [Example 7, 2-[5-(4,5-Diphenylpyrimidin-2-ylsulfanyl)pentyl]cyclopropanecarboxylic acid]	101%
O=C(O)C1CC1CCCCOc1ncc(-c2ccccc2)c(-c2ccccc2)n1 (stereo not drawn) [Example 9, 2-[4-(4,5-Diphenylpyrimidin-2-yloxy)butyl]cyclopropanecarboxylic acid]	101%
O=C(O)[C@H]1CCC[C@@H](COc2ncc(-c3ccccc3)c(-c3ccccc3)n2)C1 [Example 1, (1S,3R)-3-(4,5-Diphenylpyrimidin-2-yloxymethyl)cyclohexanecarboxylic acid]	74%
